According to PubChem BioAssay (NCI):
Values joined by “and” are separate entries in the source; they are usually repeats but may differ in a detail not shown here. Identical values can stand only once.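 These data come from cells grown in 96-well plates and exposed to compound for 48 hours at five concentrations. GI50: concentration for 50% inhibition of growth. At the TGI there is no net growth.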 Where a SMILES comes first, the peptide text is derived from it. Bridges are numbered along the chain shown (N, C = ends).

Assays:
Experiment in all cases: NCI anticancer screen, dose series, 48 h
K-562 leukemia = system: K-562 leukemia
OVCAR-8 ovarian = system: OVCAR-8 ovarian
MDA-MB-435 = system: MDA-MB-435
SF-295 CNS = system: SF-295 CNS
NCI-H226 lung = system: NCI-H226 lung
HT29 colon = system: HT29 colon

SMILES	GI50 (K-562 leukemia) [µM]	TGI (K-562 leukemia) [µM]	GI50 (OVCAR-8 ovarian) [µM]	TGI (OVCAR-8 ovarian) [µM]	GI50 (MDA-MB-435) [µM]	TGI (MDA-MB-435) [µM]	GI50 (SF-295 CNS) [µM]	TGI (SF-295 CNS) [µM]	GI50 (NCI-H226 lung) [µM]	GI50 (HT29 colon)	TGI (HT29 colon)	TGI (NCI-H226 lung) [µM]
CC1OC(OC2C(O)C(OCCc3ccc(O)c(O)c3)OC(CO)C2OC(=O)/C=C/c2ccc(O)c(O)c2)C(O)C(O)C1O (stereo unspecified)	15.5	> 100	> 100	> 100	39.7	> 100	31.5	> 100				
O=C1NC(c2cccc3ccccc23)Nc2ccccc21 (stereo unspecified)	0.00758		0.0783	12		0.0068	0.0592	0.894	0.0238	0.0256 µM and 0.0306 µM	1.14 µM and 0.203 µM	
O=C(Nc1cccc(-n2ccc3c(NC(=O)c4ccccc4)nccc32)c1)c1ccc(Cl)c(Cl)c1	0.0551		0.274	1.86	0.0275	0.103	0.0645	1.31	0.568	0.0833 µM	0.84 µM	3.65
O=C(O)CC(S)C(=O)O.[Li+].[Sb] (stereo unspecified)	85.3	> 100	> 100	> 100	> 100	> 100	55.3	> 100	> 100	88.6 µM	> 100 µM	> 100
COc1ccc2[nH]cc(C3(c4c[nH]c5ccc(OC)cc45)C(=O)Nc4ccc(Cl)cc43)c2c1	3.69	> 100	3.36	18.7			2.1	6.26	3.38			30
COc1ccc(C(=O)/C=C/c2c(C(F)(F)F)nc3ccccn23)cc1OC	0.377	> 100	1.06	> 25.1	1.15	> 100	3.15	42.5	3.97	0.786 µM		> 100
COc1ccc(Cl)cc1Nc1nc(C(F)(F)F)ccc1C(=O)N/N=C/c1ccccc1Cl	10.7	> 21.8	2.4	> 31	2.61	> 27.7	0.27	1.36	1.45	4.24 µM	> 100 µM	18.2
CC(C)c1ccc(C(O)(C(=O)O)c2ccc(C(C)C)cc2)cc1		> 100		> 100		> 100		95.5			> 100 µM	54.6
Cc1nccc2c3ccc(OCc4cn(-c5ccc(Br)cc5)nn4)cc3n(CCCc3ccccc3)c12			2.12	5.09			> 100	> 100	1.75	2.9 µM	> 100 µM	13.6
CCOC(=O)Nc1cc2c(c(N)n1)N=C(c1ccccc1)CN2				> 100	< 0.0001	< 0.0001	< 0.0001	13.5	0.000221	< 0.0001 µM		
CCN(CC)CCNc1ccc(N=Nc2cnc3ccccc3c2)c2ccccc12	1.03	2.3	2.09	4.19			1.77	3.38	1.71	1.38 µM	2.67 µM	3.66
COc1cc(C(=O)c2cnc(-c3ccc4cc[nH]c4c3)[nH]2)cc(OC)c1OC	0.0173	8.74	0.0484	11.5		0.0245			0.117	0.0316 µM	0.108 µM	9
CCOP(=O)(OCC)C(NC(c1ccccc1)c1ccccc1)c1ccsc1 (stereo unspecified)	14.9	56.5	23.5	57	21.2	39.7	18.4	36.9	13.7			28.8
O=C1c2c(c3c4ccccc4n(CCCCCCN4CCOCC4)c3c3[nH]c4ccccc4c23)C(=O)N1O			2.44	9.39	3.72	20.1	16.8	35.7	> 32.5	3.39 µM	18.1 µM	> 80.4
O=C(CCN1CCCC1)Nc1ccc2c(Nc3ccc(Br)cc3)c3ccccc3nc2c1					1.68	3.1	1.59	3.02	1.39			3.02
O=C(CS(=O)c1nc2ccccc2nc1-c1ccccc1)Nc1ccc(Cl)cc1 (stereo unspecified)			38.3	> 100	18.1	41.4	15.7	48.7	23.1	48.5 µM	> 100 µM	47.8
CCC(C)C1NC(=O)C(CC(C)C)NC(=O)C(C(C)C)NC(=O)C2CSSCC(NC1=O)C(=O)N2 (stereo unspecified) (cyclo(CCVLI); disulfide 1-2; configuration not given here)				0.491		0.391		0.34			0.356 µM	
CSc1nc(SC)c2c(C)c(Br)[nH]c2n1				> 100		> 100		> 100			> 100 µM	> 100
